Experimental data as given in EPA's ToxRefDB 2.

Assays:
rat [1] = conditions: Subchronic oral toxicity in rodents, sprague dawley, Feed, dose end: 91 day, group: systemic
rat [2] = conditions: Prenatal developmental toxicity study, sprague dawley, Oral, Gavage/Intubation, dose end: 15 GD
dog [3] = conditions: Chronic toxicity; beagle; Oral; Capsule; dose end: 26 week; group: systemic; systemic / in life observation / clinical signs / defecation (diarrhea) + systemic / in life observation / clinical signs / mucoid stools + …
rabbit = conditions: Prenatal developmental toxicity study, new zealand white, Oral, Gavage/Intubation, dose end: 18 GD
mouse [4] = conditions: Combined chronic toxicity/carcinogenicity; cd1; Oral; [Not Specified]; dose end: 18 month; group: systemic; systemic / pathology microscopic / lung / adenoma + systemic / pathology microscopic / lung / carcinoma
rat [5] = conditions: Chronic toxicity; other; Oral; Feed; dose end: 24 month; group: systemic; systemic / organ weight / testes / nos + systemic / pathology gross / testes / reduced size + systemic / pathology microscopic / testes / …
dog [6] = conditions: Subchronic oral toxicity in nonrodent, beagle, Capsule, dose end: 91 day, group: systemic
rat [7] = conditions: Multigenerational reproductive toxicity study, sprague dawley, Oral, Feed, dose end: 2 generation
mouse [8] = conditions: Carcinogenicity, b6c3f1, Oral, Feed, dose end: 105 week, group: systemic
rat [9] = conditions: Subchronic oral toxicity in rodents, fischer, Feed, dose end: 13 week
mouse [10] = conditions: Subchronic oral toxicity in rodents, b6c3f1, Feed, dose end: 13 week, group: systemic
mouse [11] = conditions: Sub-acute repeat dose toxicity; b6c3f1; Oral; Gavage/Intubation; dose end: 14 day; group: systemic; systemic / in life observation / clinical signs / distended abdomens + systemic / in life observation / clinical signs / fur (altered …
[12] = systemic / organ weight / testes / nos + systemic / in life observation / body weight / body weight + systemic / in life observation / food …
[13] = group: developmental, developmental / developmental malformation / bone / incomplete ossification + developmental / developmental malformation / general / [other…
[14] = group: maternal, systemic / in life observation / body weight / body weight + systemic / in life observation / clinical signs / fat, discoloration + systemic…
[15] = group: developmental, systemic / in life observation / body weight / fetal weight
[16] = group: maternal, systemic / in life observation / clinical signs / anogenital staining + systemic / in life observation / clinical signs / defecation + …
[17] = systemic / clinical chemistry / alanine aminotransferase (alt/sgpt) / alanine aminotransferase (alt/sgpt) + systemic / in life observation…
[18] = systemic / in life observation / body weight / body weight
[19] = group: parental, systemic / pathology gross / testes / degeneration + systemic / pathology microscopic / testes / aspermia + systemic / pathology microscopic…
[20] = group: reproductive, reproductive / reproductive performance / fertility / fertility + reproductive / reproductive performance / mating / mating
[21] = systemic / in life observation / body weight / body weight + systemic / hematology / reticulocyte / reticulocyte
[22] = group: developmental, developmental / offspring survival late / [other] / [other]
[23] = group: maternal, reproductive / offspring survival early / birth index / birth index
[24] = group: maternal, reproductive / reproductive performance / estrous cycle / length
[25] = group: systemic, systemic / pathology microscopic / spleen / hemosiderosis + systemic / in life observation / clinical signs / fur (altered appearance)
[26] = systemic / in life observation / body weight / body weight + systemic / in life observation / body weight / body weight gain + systemic / …

`CC1(C)CN=C(NN=C(C=Cc2ccc(C(F)(F)F)cc2)C=Cc2ccc(C(F)(F)F)cc2)NC1` [Hydramethylnon] gave an LEL (rat [1]; systemic / organ weight / testes / nos) of 2.5 mg/kg/day, an NEL (rat [1]; [12]) of 1.25 mg/kg/day and an NOAEL (rat [1]; [12]) of 2.5 mg/kg/day. For the same molecule, the LOAEL (rat [1]; systemic / organ weight / testes / nos + systemic / pathology microscopic / testes / atrophy) was 5 mg/kg/day, the LEL (rat [2]; [13]) was 30 mg/kg/day and the LOAEL (rat [2]; [13]) was 30 mg/kg/day. It also gave an NEL (rat [2]; [13]) of 10 mg/kg/day, an NOAEL (rat [2]; [13]) of 10 mg/kg/day and an LEL (rat [2]; group: maternal, systemic / in life observation / body weight / body weight + systemic / in life observation / clinical signs / fat, discoloration) of 10 mg/kg/day. It also gave an LOAEL (rat [2]; [14]) of 30 mg/kg/day, an NEL (rat [2]; [14]) of 3 mg/kg/day and an NOAEL (rat [2]; [14]) of 10 mg/kg/day. It also gave an LEL (dog [3]) of 3 mg/kg/day, an LOAEL (dog [3]) of 3 mg/kg/day and an NEL (dog [3]) of 1 mg/kg/day. It also gave an NOAEL (dog [3]) of 1 mg/kg/day, an LEL (rabbit; [15]) of 10 mg/kg/day and an LOAEL (rabbit; [15]) of 10 mg/kg/day. For the same molecule, the NEL (rabbit; [15]) was 5 mg/kg/day, the NOAEL (rabbit; [15]) was 5 mg/kg/day and the LEL (rabbit; [16]) was 10 mg/kg/day. It also gave an LOAEL (rabbit; [16]) of 10 mg/kg/day, an NEL (rabbit; [16]) of 5 mg/kg/day and an NOAEL (rabbit; [16]) of 5 mg/kg/day. The LEL (mouse [4]) was 4.45 mg/kg/day, the LOAEL (mouse [4]) was 4.45 mg/kg/day and the NEL (mouse [4]) was < 4.45 mg/kg/day. For the same molecule, the NOAEL (mouse [4]) was < 4.45 mg/kg/day, the LEL (rat [5]) was 4.9 mg/kg/day and the LOAEL (rat [5]) was 4.9 mg/kg/day. It also gave an NEL (rat [5]) of 2.4 mg/kg/day, an NOAEL (rat [5]) of 2.4 mg/kg/day and an LOAEL (dog [6]; [17]) of 6 mg/kg/day. The NOAEL (dog [6]; [17]) was 3 mg/kg/day, the LEL (dog [6]; [18]) was 3 mg/kg/day and the NEL (dog [6]; [18]) was < 3 mg/kg/day. For the same molecule, the LEL (rat [7]; [19]) was 3.32 mg/kg/day, the LOAEL (rat [7]; [19]) was 3.32 mg/kg/day and the NEL (rat [7]; [19]) was 1.66 mg/kg/day. The NOAEL (rat [7]; [19]) was 1.66 mg/kg/day, the LEL (rat [7]; [20]) was 5.07 mg/kg/day and the LOAEL (rat [7]; [20]) was > 5.07 mg/kg/day. For the same molecule, the NEL (rat [7]; [20]) was 3.32 mg/kg/day and the NOAEL (rat [7]; [20]) was ≥ 5.07 mg/kg/day.

Work on `CC(C)(C)c1cc(O)ccc1O` [tert-Butylhydroquinone] yielded an LOAEL (mouse [8]; [18]) of 600 mg/kg/day, an LEL (mouse [8]; [21]) of 600 mg/kg/day and an NEL (mouse [8]; [21]) of 300 mg/kg/day. For the same molecule, the NOAEL (mouse [8]; [21]) was 300 mg/kg/day, the LEL (rat [9]; [22]) was 750 mg/kg/day and the NEL (rat [9]; [22]) was 400 mg/kg/day. It also gave an LOAEL (rat [9]; [23]) of 1000 mg/kg/day, an NOAEL (rat [9]; [23]) of 500 mg/kg/day and an LEL (rat [9]; [24]) of 200 mg/kg/day. For the same molecule, the NEL (rat [9]; [24]) was < 200 mg/kg/day, the LOAEL (rat [9]; group: systemic, systemic / in life observation / body weight / body weight + systemic / in life observation / body weight / offspring (pup) weight) was 400 mg/kg/day and the NOAEL (rat [9]; group: systemic, systemic / in life observation / body weight / body weight + systemic / in life observation / body weight / offspring (pup) weight + …) was 200 mg/kg/day. For the same molecule, the LEL (rat [9]; [25]) was 200 mg/kg/day, the NEL (rat [9]; [25]) was < 200 mg/kg/day and the LOAEL (mouse [10]; systemic / in life observation / body weight / body weight + systemic / in life observation / body weight / body weight gain) was 1950 mg/kg/day. For the same molecule, the LEL (mouse [10]; [26]) was 1950 mg/kg/day, the NEL (mouse [10]; [26]) was 880 mg/kg/day and the NOAEL (mouse [10]; [26]) was 880 mg/kg/day.

`O=C(O)c1ccccc1` [Benzoic acid] was tested, and the LEL (mouse [11]) was 642 mg/kg/day, the LOAEL (mouse [11]) was > 642 mg/kg/day and the NEL (mouse [11]) was 321 mg/kg/day. The NOAEL (mouse [11]) was ≥ 642 mg/kg/day.
